Experiments:
[1] = test system: intracellular Ca^++; conditions: (2) Ca++ from intracellular store site; (3) Ca++ through receptor-dependent channel; cited from earlier work
[2] = in vivo; cited from earlier work
[3] = test system: contraction depending on intracellular Ca^++; test: Intracellular Ca++ antagonism: inhibition of phenylephrine contraction of aorta strip in Ca++-free EGTA solution; type: cell-based, rabbit; conditions: Oryctolagus cuniculus; compound 10^-4 M; phenylephrine 10^-6 M; Ca++ 0 mM, EGTA 5 mM; read-out: Inhibitory percent (contraction depending on intracellular Ca++)
Method: A spiral strip of aorta of a rabbit (2-3 mm width, about 3 cm length) was allowed to equilibrate by hanging under 2 g force in a Krebs-Henseleit solution. The solution was saturated with a mixture gas 97% O2 --3% CO2, which was warmed to 37° C. The strip was moved into another Krebs-Henseleit solution containing Ca^++ OmM and EGTA 5 mM. Five minutes later, phenylephrine (10^-6 M) was added on the solution. The resulting contraction of the strip was made as the index of the contraction depending on intracellular Ca^++.

[4] = cited from earlier work

| Compound | Action on intracellular Ca++ (in words) [1] | Side effects of known drugs (in words) [2] | inhibition at 100 µM [3] | Antihypertensive action in vivo (in words) [4] |
| --- | --- | --- | --- | --- |
| NCCCCCCNS(=O)(=O)c1cccc2c(Cl)cccc12 [Example W-7] | weak in their action |  |  |  |
| COc1cc2nc(N3CCN(C(=O)c4ccco4)CC3)nc(N)c2cc1OC [prazosin] |  | orthostatic hypotension often observed |  |  |
| CCN(CC)CCCCCCCCOC(=O)c1cc(OC)c(OC)c(OC)c1 [TMB-8] | weak in their action |  | 58% | do not display antihypertensive action in vivo |
| CN1CCN(CCCN2c3ccccc3Sc3ccc(C(F)(F)F)cc32)CC1 [trifluoperazine] | showing antagonism against intracellular Ca^++ | side effects e.g. on the central nervous system |  |  |
